In ChEMBL document CHEMBL1136133, “Discovery of the first series of inhibitors of human papillomavirus type 11: inhibition of the assembly of the E1-E2-Origin DNA complex” (Bioorg Med Chem Lett, 2003):

Tested on: human papillomavirus 11
Test: Inhibition of the assembly of the (HPV11) Human Papillomavirus Type 11 E1E2 Origin DNA Complex
Format: functional, organism-based

Row | SMILES | IC50
1 | O=C1[C@H]2[C@H](c3ccc(Cl)cc3)OC3(C(=O)c4ccccc4C3=O)[C@H]2C(=O)N1c1ccc2c(c1)OCO2 | > 80 µM
2 | O=C(Nc1ccc2c(c1)OCO2)[C@H]1C(c2ccc(Cl)cc2)OC2(C(=O)c3ccccc3C2=O)[C@H]1C(=O)O (stereo partly drawn) | > 80 µM
3 | O=C1C2C(c3ccc(Cl)cc3)OC3(C(=O)c4ccccc4C3=O)C2C(=O)N1c1ccc2c(c1)OCO2 (stereo not drawn) | 11 µM
4 | O=C(Nc1ccc2c(c1)OCO2)[C@H]1[C@@H](c2ccc(Cl)c(Cl)c2)OC2(C(=O)c3ccccc3C2=O)[C@H]1C(=O)O | 0.35 µM

Other lines, results leading:

Row | IC50 | SMILES
5 | 2.6 µM | O=C(Nc1ccc2c(c1)OCO2)[C@H]1[C@@H](c2cccc(Cl)c2)OC2(C(=O)c3ccccc3C2=O)[C@H]1C(=O)O
6 | > 80 µM | O=C(Nc1ccc2c(c1)OCO2)[C@H]1[C@@H](c2ccccc2Cl)OC2(C(=O)c3ccccc3C2=O)[C@H]1C(=O)O
7 | 71 µM | O=C(Nc1ccc2c(c1)OCO2)[C@H]1[C@@H](c2ccccc2)OC2(C(=O)c3ccccc3C2=O)[C@H]1C(=O)O
8 | 7.8 µM | O=C(Nc1ccc2c(c1)OCO2)[C@H]1[C@@H](c2ccc(Cl)cc2)OC2(C(=O)c3ccccc3C2=O)[C@H]1C(=O)O
